According to PubChem BioAssay AID256 (DTP/NCI, 2004):
Several values for one entry are separate records, joined by “and”; a condition that tells them apart may be missing. Identical values can stand only once. Toxic doses and inconclusive results are not listed. Rule for the calls: active = survival T/C of 150% or more; inactive = T/C below 125% in these data.

Tested on: CD2F1 mice, L1210 leukemia ip, survival T/C
Assay: NCI In Vivo Anticancer Drug Screen. Data for tumor model L1210 Leukemia (intraperitoneal) in CD2F1 (CDF1) mice
Settings: higher = longer survival
Method in brief: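 Ratio T/C, where T is the treated-group value and C the vehicle-dosed control value, from mice implanted with a transplantable tumor.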

[1] = endpoint: mean survival time, dose: 50.0 mg/kg/injection, schedule: Q01DX009 (ip), vehicle: saline with Tween-80
[2] = endpoint: mean survival time, dose: 100.0 mg/kg/injection, schedule: Q01DX009 (ip), vehicle: saline with Tween-80
[3] = endpoint: mean survival time, dose: 100.0 mg/kg/injection, schedule: Q04DX003 (ip), vehicle: saline with Tween-80
[4] = endpoint: mean survival time, dose: 200.0 mg/kg/injection, schedule: Q01DX009 (ip), vehicle: saline with Tween-80
[5] = endpoint: mean survival time, dose: 200.0 mg/kg/injection, schedule: Q04DX003 (ip), vehicle: saline with Tween-80
[6] = endpoint: mean survival time, dose: 100.0 mg/kg/injection, schedule: Q01DX001 (ip), vehicle: saline with Tween-80
[7] = endpoint: mean survival time, dose: 200.0 mg/kg/injection, schedule: Q01DX001 (ip), vehicle: saline with Tween-80
[8] = endpoint: mean survival time, dose: 400.0 mg/kg/injection, schedule: Q01DX001 (ip), vehicle: saline with Tween-80
[9] = endpoint: mean survival time, dose: 400.0 mg/kg/injection, schedule: Q04DX003 (ip), vehicle: saline with Tween-80
[10] = endpoint: mean survival time, dose: 100.0 mg/kg/injection, schedule: Q04DX003 (ip), vehicle: saline
[11] = endpoint: mean survival time, dose: 400.0 mg/kg/injection, schedule: Q01DX009 (ip), vehicle: saline with Tween-80
[12] = endpoint: mean survival time, dose: 100.0 mg/kg/injection, schedule: Q04DX002 (ip), vehicle: saline with Tween-80

Measured: T/C

CN(C)CCOc1ccccc1Cc1ccccc1
inactive: [1] 104 % of control | [2] 119 % of control | [3] 98 % of control | [4] 107 % of control | [5] 97 % of control

O=C1C[C@H]2[C@H](CO)[C@@H](OC(=O)c3ccc(-c4ccccc4)cc3)C[C@H]2O1
inactive: endpoint: mean survival time, dose: 100.0 mg/kg/injection, schedule: Q01DX001 (ip), vehicle: alcohol 94 % of control | endpoint: mean survival time, dose: 200.0 mg/kg/injection, schedule: Q01DX001 (ip), vehicle: alcohol 88 % of control | endpoint: mean survival time, dose: 400.0 mg/kg/injection, schedule: Q01DX001 (ip), vehicle: alcohol 92 % of control

O=C(NC(=S)c1ccccc1)Nc1ccc(Cl)cc1
inactive: [6] 90 % of control | [7] 94 % of control | [8] 94 % of control

CC(C)C(C)CCC(C)C1CCC2C3CC=C4CC(O)CCC4(C)C3CCC12C (stereo not drawn)
inactive: endpoint: mean survival time, dose: 25.0 mg/kg/injection, schedule: Q01DX001 (ip), vehicle: saline with Tween-80 91 % of control | endpoint: mean survival time, dose: 50.0 mg/kg/injection, schedule: Q01DX001 (ip), vehicle: saline with Tween-80 94 % of control | [6] 97 % of control

CC1=C(Br)C(=O)C(Br)=C(Br)C1=O
inactive: endpoint: mean survival time, dose: 25.0 mg/kg/injection, schedule: Q01DX009 (ip), vehicle: saline with Tween-80 96 % of control

c1ccc([CH2][Pb]([c]2ccccc2)([c]2ccccc2)[c]2ccccc2)cc1
inactive: [3] 100 % of control | [5] 97 % of control | [9] 91 % of control

Cl/C=C\C[N+]12CN3CN(CN(C3)C1)C2
inactive: [10] 96 % of control

COC(=O)CC1(C)C(=O)CCC2(C)C1=CCc1ccc(OC)cc12 (stereo not drawn)
inactive: endpoint: mean survival time, dose: 100.0 mg/kg/injection, schedule: Q01DX001 (sc), vehicle: steriod suspending solution 102 % of control | endpoint: mean survival time, dose: 200.0 mg/kg/injection, schedule: Q01DX001 (sc), vehicle: steriod suspending solution 96 % of control | endpoint: mean survival time, dose: 400.0 mg/kg/injection, schedule: Q01DX001 (sc), vehicle: steriod suspending solution 101 % of control

N=c1c2ncn(C3OC(CO)C(O)C3O)c2ncn1N (stereo not drawn)
inactive: endpoint: mean survival time, dose: 50.0 mg/kg/injection, schedule: Q01DX005 (ip), vehicle: water 101 % of control | endpoint: mean survival time, dose: 100.0 mg/kg/injection, schedule: Q01DX005 (ip), vehicle: water 101 % of control | endpoint: mean survival time, dose: 200.0 mg/kg/injection, schedule: Q01DX005 (ip), vehicle: water 114 % of control

CSc1ncc(N=C=O)c(=O)[nH]1
inactive: [6] 94 % of control | [7] 94 % of control

OC1OCC(Cc2ccc3c(c2)OCO3)C1Cc1ccc2c(c1)OCO2 (stereo not drawn)
inactive: [10] 89 % of control | endpoint: mean survival time, dose: 200.0 mg/kg/injection, schedule: Q04DX003 (ip), vehicle: saline 93 % of control | endpoint: mean survival time, dose: 400.0 mg/kg/injection, schedule: Q04DX003 (ip), vehicle: saline 89 % of control

C=C1CC(C)(Cn2cnc3c(N)ncnc32)OC1=O (stereo not drawn)
inactive: endpoint: median survival time, dose: 6.13 mg/kg/injection, schedule: Q01DX005 (ip), vehicle: water 104 % of control | endpoint: median survival time, dose: 12.25 mg/kg/injection, schedule: Q01DX005 (ip), vehicle: water 101 % of control | endpoint: median survival time, dose: 24.5 mg/kg/injection, schedule: Q01DX005 (ip), vehicle: water 103 % of control | endpoint: median survival time, dose: 49.0 mg/kg/injection, schedule: Q01DX005 (ip), vehicle: water 101 % of control

CCCCN=[N+]=[N-]
inactive: endpoint: mean survival time, dose: 25.0 mg/kg/injection, schedule: Q01DX009 (ip), vehicle: water 94 % of control | endpoint: mean survival time, dose: 100.0 mg/kg/injection, schedule: Q01DX009 (ip), vehicle: water 96 % of control | endpoint: mean survival time, dose: 200.0 mg/kg/injection, schedule: Q01DX009 (ip), vehicle: water 91 % of control

CC(C)CCCC(C)C1CCC2C3CC=C4CC(OCCC(C)C)CCC4(C)C3CCC12C (stereo not drawn)
inactive: [3] 97 % of control | [5] 95 % of control | [9] 88 % of control

CN1NC(c2ccc(Cl)cc2)C2CN(C3CCCCC3)C(=O)C21O (stereo not drawn)
inactive: [6] 100 % of control | [2] 96 % of control | [7] 96 % of control | [4] 90 % of control | [8] 94 % of control | [11] 88 % of control

CC(=O)NCCN=Cc1ccccc1
inactive: [2] 97 % of control | [3] 95 % of control | [4] 95 % of control | [5] 95 % of control | [11] 97 % of control | [9] 97 % of control

CC1CCC(=O)C2(C)CC3OC(=O)C(C)C3C=C12 (stereo not drawn)
inactive: [3] 94 % of control | [5] 93 % of control | [9] 86 % of control

CC1CC(C(=O)O)C(S(N)(=O)=O)C1 (stereo not drawn)
inactive: endpoint: mean survival time, dose: 50.0 mg/kg/injection, schedule: Q04DX002 (ip), vehicle: saline 97 % of control | endpoint: mean survival time, dose: 100.0 mg/kg/injection, schedule: Q04DX002 (ip), vehicle: saline 108 % of control | endpoint: mean survival time, dose: 200.0 mg/kg/injection, schedule: Q04DX002 (ip), vehicle: saline 108 % of control

Cc1cc(SCC(=O)c2ccc(Br)cc2)cc(C)[o+]1
inactive: endpoint: mean survival time, dose: 6.25 mg/kg/injection, schedule: Q01DX009 (ip), vehicle: saline 96 % of control and 104 % of control | endpoint: mean survival time, dose: 12.5 mg/kg/injection, schedule: Q01DX009 (ip), vehicle: saline 102 % of control and 108 % of control | endpoint: mean survival time, dose: 25.0 mg/kg/injection, schedule: Q01DX009 (ip), vehicle: saline 96 % of control and 108 % of control | endpoint: mean survival time, dose: 50.0 mg/kg/injection, schedule: Q01DX009 (ip), vehicle: saline 92 % of control and 96 % of control | endpoint: mean survival time, dose: 100.0 mg/kg/injection, schedule: Q01DX009 (ip), vehicle: saline 102 % of control | endpoint: mean survival time, dose: 200.0 mg/kg/injection, schedule: Q01DX009 (ip), vehicle: saline 86 % of control

CC1(C)COC(=O)C(C)(C)C1=O
inactive: endpoint: mean survival time, dose: 25.0 mg/kg/injection, schedule: Q04DX002 (ip), vehicle: saline with Tween-80 107 % of control | endpoint: mean survival time, dose: 50.0 mg/kg/injection, schedule: Q04DX002 (ip), vehicle: saline with Tween-80 96 % of control | [12] 96 % of control

CC(=O)C(C(c1ccccc1)N1CCCc2ccccc21)N1CCOCC1 (stereo not drawn)
inactive: endpoint: mean survival time, dose: 100.0 mg/kg/injection, schedule: Q04DX003 (ip), vehicle: Klucel (hydroxypropylcellulose) (HPC) 98 % of control | endpoint: mean survival time, dose: 200.0 mg/kg/injection, schedule: Q04DX003 (ip), vehicle: Klucel (hydroxypropylcellulose) (HPC) 101 % of control | endpoint: mean survival time, dose: 400.0 mg/kg/injection, schedule: Q04DX003 (ip), vehicle: Klucel (hydroxypropylcellulose) (HPC) 108 % of control

COc1ccc(CCNC(=O)Cc2ccc3c(c2)OCO3)cc1OC
inactive: [6] 92 % of control | [12] 87 % of control | [7] 93 % of control | endpoint: mean survival time, dose: 200.0 mg/kg/injection, schedule: Q04DX002 (ip), vehicle: saline with Tween-80 97 % of control | [8] 94 % of control | endpoint: mean survival time, dose: 400.0 mg/kg/injection, schedule: Q04DX002 (ip), vehicle: saline with Tween-80 93 % of control

NC(=O)C(CSCc1ccccc1)NC(=O)OCc1ccccc1 (stereo not drawn)
inactive: [2] 91 % of control | [4] 88 % of control | [11] 91 % of control

O=P(O)(O)OCC(O)CF (stereo not drawn)
inactive: endpoint: mean survival time, dose: 87.5 mg/kg/injection, schedule: Q04DX003 (ip), vehicle: saline 118 % of control

O=C(CCc1ccc(O)cc1)c1c(O)cc(O)cc1OC1OC(CO)C(O)C(O)C1O (stereo not drawn)
inactive: endpoint: mean survival time, dose: 100.0 mg/kg/injection, schedule: Q01DX001 (ip), vehicle: saline 102 % of control | endpoint: mean survival time, dose: 200.0 mg/kg/injection, schedule: Q01DX001 (ip), vehicle: saline 98 % of control | endpoint: mean survival time, dose: 400.0 mg/kg/injection, schedule: Q01DX001 (ip), vehicle: saline 104 % of control

N#CSCN1C(=O)C=CC1=O
inactive: endpoint: mean survival time, dose: 1.25 mg/kg/injection, schedule: Q01DX009 (ip), vehicle: saline with Tween-80 93 % of control | endpoint: mean survival time, dose: 2.5 mg/kg/injection, schedule: Q01DX009 (ip), vehicle: saline with Tween-80 89 % of control | endpoint: mean survival time, dose: 5.0 mg/kg/injection, schedule: Q01DX009 (ip), vehicle: saline with Tween-80 93 % of control

Nc1nc(=S)c2[nH]c(N=Nc3ccc(S(N)(=O)=O)cc3)nc2[nH]1
inactive: endpoint: mean survival time, dose: 50.0 mg/kg/injection, schedule: Q04DX003 (ip), vehicle: Klucel (hydroxypropylcellulose) (HPC) 123 % of control

CCOC(=O)n1cnc2ncnc(SC)c21
inactive: endpoint: mean survival time, dose: 50.0 mg/kg/injection, schedule: Q01DX001 (ip), vehicle: other 95 % of control | endpoint: mean survival time, dose: 50.0 mg/kg/injection, schedule: Q01DX009 (ip), vehicle: other 102 % of control | [1] 109 % of control | endpoint: mean survival time, dose: 100.0 mg/kg/injection, schedule: Q01DX001 (ip), vehicle: other 106 % of control | endpoint: mean survival time, dose: 100.0 mg/kg/injection, schedule: Q01DX009 (ip), vehicle: other 102 % of control | [2] 101 % of control | endpoint: mean survival time, dose: 200.0 mg/kg/injection, schedule: Q01DX001 (ip), vehicle: other 102 % of control | endpoint: mean survival time, dose: 200.0 mg/kg/injection, schedule: Q01DX009 (ip), vehicle: other 123 % of control | [4] 91 % of control | endpoint: mean survival time, dose: 400.0 mg/kg/injection, schedule: Q01DX001 (ip), vehicle: other 108 % of control | endpoint: mean survival time, dose: 400.0 mg/kg/injection, schedule: Q01DX009 (ip), vehicle: other 121 % of control
